We go through ten compounds from US7129356B2, “Farnesyl transferase inhibiting 4-substituted quinoline and quinazoline derivatives” (Janssen Pharmaceutica N.V., priority 2000, dated 2006).

Molecules are shown by their SMILES.

As a reminder, the melting point is the temperature of the solid-liquid transition. Compound `CCOC(=O)c1c(Oc2cccc(Cl)c2)c2cc(C(c3ccc(Cl)cc3)c3cnc(-c4ccccc4)[nH]3)ccc2[nH]c1=O` (stereo not shown) [Example B4 F2, 4-(3-chlorophenoxy)-6-[(4-chlorophenyl)(2-phenyl-1H-imidazol-5-yl)methyl]-1,2-dihydro-2-oxo-3-quinolinecarboxylic acid ethyl ester] returned a melting point of 189 °C. With `Cn1cncc1C(O)(c1ccc(Cl)cc1)c1ccc2c(c1)c(CCc1cccc(Cl)c1)cc(=O)n2C` (stereo not shown) [Example B2, 4-[2-(3-chlorophenyl)ethyl]-6-[(4-chlorophenyl)hydroxy(1-methyl-1H-imidazol-5-yl)methyl]-1-methyl-2(1H)-quinolinone] the figure was 190 °C. Regarding `Cn1c(=O)cc(CCc2cccc(Cl)c2)c2cc(C(O)(c3ccc(Cl)cc3)c3cccnc3)ccc21` (stereo not shown) [Example B14, 4-[2-(3-chlorophenyl)ethyl]-6-[(4-chlorophenyl)hydroxy-3-pyridinylmethyl]-1-methyl-2(1H)-quinolinone], the melting point stood at 115 °C. With `Cn1cnnc1C(O)(c1ccc(Cl)cc1)c1ccc2c(c1)c(CCc1cccc(Cl)c1)cc(=O)n2C` (stereo not shown) [Example B20, 4-[2-(3-chlorophenyl)ethyl]-6-[(4-chlorophenyl)hydroxy(4-methyl-4H-1,2,4-triazol-3-yl)methyl]-1-methyl-2(1H)-quinolinone] the figure was 200 °C.

`O=c1[nH]c2ccc(C(c3ccc(Cl)cc3)n3ccnc3-c3ccccc3)cc2c(Oc2cccc(Cl)c2)c1CO` (stereo not shown) [Example B5, 4-(3-chlorophenoxy)-6-[(4-chlorophenyl)(2-phenyl-1H-imidazol-1-yl)methyl]-3-(hydroxymethyl)-2(1H)-quinolinone] returned a melting point of 246 °C. As for `CN(C(=O)c1cc(=O)n(C)c2ccc(C(O)(c3ccc(Cl)cc3)c3cncn3C)cc12)c1cccc(Cl)c1` (stereo not shown) [Example B11, N-(3-chlorophenyl)-6-[(4-chlorophenyl)hydroxy(1-methyl-1H-imidazol-5-yl)methyl]-1,2-dihydro-N,1-dimethyl-2-oxo-4-quinolinecarboxamide], the figure is 218 °C; as for `Cn1c(=O)cc(CCc2cccc(Cl)c2)c2cc(C(N)(c3ccc(Cl)cc3)c3cccnc3)ccc21` (stereo not shown) [Example B15, 6-[amino(4-chlorophenyl)-3-pyridinylmethyl]-4-[2-(3-chlorophenyl)ethyl]-1-methyl-2(1H)-quinolinone], 90 °C. In the case of `Cn1cncc1C(N)(c1ccc(Cl)cc1)c1ccc2c(c1)c(CCc1cccc(Cl)c1)cc(=O)n2C` (stereo not shown) [Example B3, 6-[amino(4-chlorophenyl)(1-methyl-1H-imidazol-5-yl)methyl]-4-[2-(3-chlorophenyl)ethyl]-1-methyl-2(1H)-quinolinone], the melting point is 165 °C. Regarding `Cc1cccc(N(C)C(=O)c2cc(=O)n(C)c3ccc(C(O)(c4ccc(Cl)cc4)c4cncn4C)cc23)c1` (stereo not shown) [Example B12, 6-[(4-chlorophenyl)hydroxy(1-methyl-1H-imidazol-5-yl)methyl]-1,2-dihydro-N,1-dimethyl-N-(3-methylphenyl)-2-oxo-4-quinolinecarboxamide], the melting point was found to be 185 °C. As for `O=c1cc(Oc2ccccc2)c2cc(C(c3ccc(Cl)cc3)n3ccnc3)ccc2[nH]1` (racemic) [Example B1, (±)-6-[(4-chlorophenyl)-1H-imidazol-1-ylmethyl]-4-phenoxy-2(1H)-quinolinone], the figure is 233.3 °C.
